Measurements published in publication PMC5431875, “In situ click chemistry generation of cyclooxygenase-2 inhibitors” (Nature Communications, 2017).
Where two headings read alike, the source gives them in different places.

What was measured:
recombinant human COX-2 = target: T1, recombinant human COX-2 (Homo sapiens, UniProt P35354); assay: COX inhibitor assay (Cayman 700100), COX-2
T1 sequence (P35354 18-604): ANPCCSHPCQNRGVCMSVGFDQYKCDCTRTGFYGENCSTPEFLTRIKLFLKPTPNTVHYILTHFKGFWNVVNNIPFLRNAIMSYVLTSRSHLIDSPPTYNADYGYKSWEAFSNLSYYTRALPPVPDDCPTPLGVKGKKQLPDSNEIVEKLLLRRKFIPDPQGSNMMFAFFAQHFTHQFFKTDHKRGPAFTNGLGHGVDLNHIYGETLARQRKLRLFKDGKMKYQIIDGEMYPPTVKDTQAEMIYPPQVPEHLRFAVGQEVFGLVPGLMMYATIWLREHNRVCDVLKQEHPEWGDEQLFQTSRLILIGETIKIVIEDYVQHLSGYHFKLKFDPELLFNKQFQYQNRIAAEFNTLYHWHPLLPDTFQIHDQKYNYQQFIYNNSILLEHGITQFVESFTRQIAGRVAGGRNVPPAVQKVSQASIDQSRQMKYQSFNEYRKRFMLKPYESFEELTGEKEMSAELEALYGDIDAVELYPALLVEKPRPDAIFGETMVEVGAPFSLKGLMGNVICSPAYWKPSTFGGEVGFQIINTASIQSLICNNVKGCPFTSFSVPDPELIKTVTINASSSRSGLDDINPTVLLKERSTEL
Protocol: (§1) Each compound was assayed in concentration range of 10^−9 M to 10^−3 M, in triplicate. PRISM5 software was used to calculate IC50 values.

ovine COX-1 = target: T2, ovine COX-1 (Ovis aries, UniProt P05979); assay: COX inhibitor assay (Cayman 700100), COX-1
T2 sequence (P05979 25-600): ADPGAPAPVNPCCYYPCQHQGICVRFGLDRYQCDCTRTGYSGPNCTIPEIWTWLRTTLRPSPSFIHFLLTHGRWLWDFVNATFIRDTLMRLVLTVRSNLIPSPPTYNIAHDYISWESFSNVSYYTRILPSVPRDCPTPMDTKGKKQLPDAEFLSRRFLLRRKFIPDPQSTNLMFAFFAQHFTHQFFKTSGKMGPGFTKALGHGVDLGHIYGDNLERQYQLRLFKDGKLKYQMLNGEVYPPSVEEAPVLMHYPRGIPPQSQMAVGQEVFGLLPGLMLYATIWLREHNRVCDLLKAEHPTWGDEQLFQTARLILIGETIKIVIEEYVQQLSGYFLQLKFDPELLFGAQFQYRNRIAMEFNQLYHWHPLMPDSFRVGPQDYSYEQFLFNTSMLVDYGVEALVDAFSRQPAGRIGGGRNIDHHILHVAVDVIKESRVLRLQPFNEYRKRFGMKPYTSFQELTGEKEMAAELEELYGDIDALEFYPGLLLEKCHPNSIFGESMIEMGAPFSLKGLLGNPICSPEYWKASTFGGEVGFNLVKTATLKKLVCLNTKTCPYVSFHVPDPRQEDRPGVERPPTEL
Protocol: as §1

COX-2 in HCA-7 cells = target: T3, COX-2 in HCA-7 cells (Homo sapiens, UniProt P35354); assay: Cellular COX-2 inhibitory activity (PGE2 ELISA) in HCA-7 cells; format: cell-based; conditions: mean of three determinations, read-out: Cell COX-2 IC50
T3 construct: endogenous in cells; host or cells: HCA-7
T3 sequence (P35354 18-604): T1 sequence (P35354 18-604)
Protocol: Based on the in vitro COX-2 inhibitory data, seventeen compounds (Table 2) were selected and further evaluated for their cellular COX-2 inhibitory activity in COX-2 expressing colorectal cancer cell line HCA-7. […]
HCA-7 cells (colorectal cancer cell line, COX-2 expression is confirmed with immunoblotting). The HCA-7 cells were cultured in T75 flasks using DMEM/F12 (1:1) medium supplemented with 10% (v/v) fetal bovine […]
were washed three times for 5 min with 1 ml PBS. Cells were negatively tested for mycoplasma contamination either by the vendor or in house. […]
vehicle (solvent) at concentration range of 10−9 M to 10−3 M. After 30 min incubation the reaction was stopped on ice and supernatants were taken and COX-2 mediated production of PGE2 was immediately determined […]
concentration is quantified by following manufacturer assay procedure. All experiments were done three times and ±s.e.m. were calculated.
The PRISM5 software was used to calculate IC50 values.

Stability in human serum = format: in vitro ADME; conditions: 37 °C, up to 30 h
Protocol: Stock solutions of compounds 5, 14, 18 and 21 (10 mM) were prepared in DMSO for molecular biology. A Solution of each compound (10 mM) was added to freshly thaw human serum (from human male AB plasma, USA origin, sterile-filtered, Sigma– Aldrich) at 37 °C; the final concentration of the compound was 100 µM. The resulting solution was incubated at 37 °C and at various time intervals (0 to 30 h) 200 µL reaction mixture samples was taken and added to 200 µL of acetonitrile containing 0.1% trifluoroacetic acid in order to deproteinize the proteins. Into each sample mixture, 10 μL of an internal standard solution (2 mM solution in methanol) was added. Sample mixture was sonicated, vortexed and then centrifuged for 15 min. at 2150 × g. The clear supernatant was transferred into the fresh tube for LCMS analysis, with a similar method described for the in situ click LC-MS studies. […]

Stability in rat serum = format: in vitro ADME; conditions: 37 °C, up to 30 h
[1] = system: carrageenan-induced rat paw edema; assay: Carrageenan-induced rat paw edema assay; format: in vivo; conditions: for Change in behavior and toxic effects: oral doses of the edema assay; for ED50 anti-inflammatory activity: p.o.; for times more potent than celecoxib: versus celecoxib ED50 at 3 h
Protocol: In vivo anti-inflammatory activity was measured using a carrageenan-induced rat paw edema assay. In brief, three to five male Sprague–Dawley rats, 8–11-weeks-old, weighing 180–200 g (Charles-River Canada) were used in each group. […] A dose–response curve was constructed using GraphPad Prism 5.0 and ED50were calculated. […] In vivo anti-inflammatory assays were carried using a protocol approved by the Health Sciences Animal Welfare Committee, University of Alberta, Edmonton, Canada.

Structure (SMILES)	melting point [°C]	IC50 (recombinant human COX-2) [µM]	COX-2 SI (selectivity index) (recombinant human COX-2; (COX-1 IC50)/(COX-2 IC50))	IC50 (ovine COX-1) [µM]	IC50 (COX-2 in HCA-7 cells) [µM]	Stability in human serum (Stability in human serum)	Stability in rat serum (Stability in rat serum)	Change in behavior and toxic effects [1]	ED50 anti-inflammatory activity ([1]; 3 h time point) [mg/kg]	ED50 anti-inflammatory activity ([1]; 5 h time point) [mg/kg]	times more potent than celecoxib [1] [times]	COX-2 SI (selectivity index) (recombinant human COX-2)
CCc1ccc(-c2cn(-c3cc(-c4ccccc4)nn3-c3ccccc3)nn2)cc1 [Compound 12]	130 to 133	18	>5.5	> 100								
Cc1ccc(-c2cn(-c3cc(-c4ccccc4)nn3-c3ccccc3)nn2)cc1 [Compound 11]	125 to 127	3.2	>31.2	> 100	2							
[N-]=[N+]=Nc1cc(-c2ccccc2)nn1-c1ccccc1 [Compound 5, 5-azido-1,3-diphenyl-1H-pyrazole]		18.1	>5.5	> 100	> 1	no significant degradation	no significant degradation					
Cc1ccc(-c2cn(-c3cc(C)nn3-c3ccc(S(C)(=O)=O)cc3)nn2)cc1 [Compound 20]		19	>5.26	> 100								
Cc1cc(-n2cc(-c3ccc(F)cc3)nn2)n(-c2ccc(S(C)(=O)=O)cc2)n1 [Compound 18, 4-(4-fluorophenyl)-1-[2-(4-methanesulfonyl-phenyl)-5-methyl-2H-pyrazol-3-yl]-1H [1,2,3]triazole]		0.09		> 100	0.06			No unusual change in behavior and toxic effects	0.44	0.99	> 25	>1,111.1
Cc1cc(-n2cc(-c3ccc(C(F)(F)F)cc3)nn2)n(-c2ccc(S(C)(=O)=O)cc2)n1 [Compound 22]	209 to 211	0.22	>454.5	> 100	0.15							
Cc1cc(-n2cc(CC(C)C)nn2)n(-c2ccc(S(C)(=O)=O)cc2)n1 [Compound 23]	150 to 153	6.2	>16.1	> 100								
COc1ccc(-c2cn(-c3cc(-c4ccccc4)nn3-c3ccccc3)nn2)cc1 [Compound 10]		15.2	>6.5	> 100								
c1ccc(-c2cn(-c3cc(-c4ccccc4)nn3-c3ccccc3)nn2)cc1 [Compound 7]		0.9	>111.1	> 100	3							
Clc1ccc(-c2cn(-c3cc(-c4ccccc4)nn3-c3ccccc3)nn2)cc1 [Compound 8]	134 to 136	0.16	>625	> 100	4							
Cc1cc(-n2cc(-c3ccccc3)nn2)n(-c2ccc(S(C)(=O)=O)cc2)n1 [Compound 16]	146 to 148	10	>10	> 100								
Fc1ccc(-c2cn(-c3cc(-c4ccccc4)nn3-c3ccccc3)nn2)cc1 [Compound 9]	129 to 131	0.14	>714.2	> 100	2							
Cc1cc(-n2cc(-c3ccc(N)cc3)nn2)n(-c2ccc(S(C)(=O)=O)cc2)n1 [Compound 21, 4-{1-[2-(4-methanesulfonyl-phenyl)-5-methyl-2H-pyrazol-3-yl]-1H-[1,2,3]triazol-4-yl}-phenylamine]		0.05		> 100	0.08			No unusual change in behavior and toxic effects	0.12	0.34	> 25	>2,000
Cc1cc(-n2cc(-c3ccc(Cl)cc3)nn2)n(-c2ccc(S(C)(=O)=O)cc2)n1 [Compound 17]	145 to 148	1.1	>90.9	> 100	1							
COc1ccc(-c2cn(-c3cc(C)nn3-c3ccc(S(C)(=O)=O)cc3)nn2)cc1 [Compound 19]		26	>3.84	> 100								

The next lines start with results.

melting point [°C]	IC50 (recombinant human COX-2) [µM]	COX-2 SI (selectivity index) (recombinant human COX-2; (COX-1 IC50)/(COX-2 IC50))	IC50 (ovine COX-1) [µM]	IC50 (COX-2 in HCA-7 cells) [µM]	Stability in human serum (Stability in human serum)	Stability in rat serum (Stability in rat serum)	Structure (SMILES)	Change in behavior and toxic effects [1]	ED50 anti-inflammatory activity ([1]; 3 h time point) [mg/kg]	ED50 anti-inflammatory activity ([1]; 5 h time point) [mg/kg]	times more potent than celecoxib [1] [times]	COX-2 SI (selectivity index) (recombinant human COX-2)
	12	3.7	45.5	0.1			Cc1cc(-n2cc(-c3ccc(F)cc3)nn2)n(-c2ccccc2)n1 [Compound 32]					
	2.7	>37.0	> 100	0.1			CS(=O)(=O)c1ccc(-n2nc(-c3ccccc3)cc2-n2cc(-c3ccc(N)cc3)nn2)cc1 [Compound 29]					
	8.6	6.73	57.9	0.1			Cc1cc(-n2cc(-c3ccc(N)cc3)nn2)n(-c2ccccc2)n1 [Compound 33]					
					no significant degradation	no significant degradation	CS(=O)(=O)c1ccc(-n2nc(-c3ccccc3)cc2N=[N+]=[N-])cc1 [Compound 27, 5-azido-1-(4-methanesulfonyl-phenyl)-3-phenyl-1H-pyrazole]					
123 to 125					no significant degradation	no significant degradation	Cc1cc(N=[N+]=[N-])n(-c2ccccc2)n1 [Compound 31, 5-azido-3-methyl-1-phenyl-1H-pyrazole]					
	0.14	>714.2	> 100	0.2			CS(=O)(=O)c1ccc(-n2nc(-c3ccccc3)cc2-n2cc(-c3ccc(F)cc3)nn2)cc1 [Compound 28]					
	5.2	>19.2	> 100	11			Cc1cc(-n2cc(CN3CCCCC3)nn2)n(-c2ccc(S(C)(=O)=O)cc2)n1 [Compound 25]					
172 to 174	0.82	>121.9	> 100	0.7			Cc1cc(-n2cc(CN3CCOCC3)nn2)n(-c2ccc(S(C)(=O)=O)cc2)n1 [Compound 24]					
